The values that follow come from PubChem BioAssay AID328 (DTP/NCI, 2004).

Where “and” joins values, the source holds several entries; their conditions need not be identical. Identical values can stand only once. Toxic doses and inconclusive results are not listed. Residues, ends and D or L forms follow the SMILES beside them. *: point of attachment. Cbz = O=C(OCc1ccccc1)*; Bn = c1ccc(C*)cc1

This experiment deals with BDF1 mice, P388 leukemia ip, median survival T/C. Put plainly: NCI In Vivo Anticancer Drug Screen. Data for tumor model P388 Leukemia (intraperitoneal) in B6D2F1 (BDF1) mice. To be noted: endpoint: median survival time, higher = longer survival. The method in brief:
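Each value expresses how treatment altered survival: treated-mouse outcome over vehicle-mouse outcome, both groups bearing the transplanted tumour.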

Setting [1] is: dose: 100.0 mg/kg/injection, schedule: Q04DX003 (ip), vehicle: Klucel (hydroxypropylcellulose) (HPC).
Setting [2] is: dose: 200.0 mg/kg/injection, schedule: Q04DX003 (ip), vehicle: Klucel (hydroxypropylcellulose) (HPC).
Setting [3] is: dose: 400.0 mg/kg/injection, schedule: Q04DX003 (ip), vehicle: Klucel (hydroxypropylcellulose) (HPC).
[4] abbreviates: dose: 100.0 mg/kg/injection, schedule: Q01DX009 (ip), vehicle: Klucel (hydroxypropylcellulose) (HPC).
Setting [5] is: dose: 100.0 mg/kg/injection, schedule: Q01DX009 (ip), vehicle: saline with Tween-80.
Setting [6] is: dose: 200.0 mg/kg/injection, schedule: Q01DX009 (ip), vehicle: saline with Tween-80.
The mark [7] stands for this setting: dose: 100.0 mg/kg/injection, schedule: Q04DX002 (ip), vehicle: saline with Tween-80.
Setting [8] is: dose: 200.0 mg/kg/injection, schedule: Q04DX002 (ip), vehicle: saline with Tween-80.
Where [9] appears, read: dose: 400.0 mg/kg/injection, schedule: Q04DX002 (ip), vehicle: saline with Tween-80.

Turning to `CC1=CC23C(=O)[C@@H](C=C(COC(=O)c4ccccc4)[C@@H](O)[C@]2(O)[C@H]1OC(=O)c1ccccc1)[C@H]1[C@@H](C[C@H]3C)C1(C)C`, the T/C was 197 % of control (dose: 7.0 micrograms/kg/injection, schedule: Q01DX009 (ip), vehicle: saline with Tween-80); 110 % of control (dose: 8.0 micrograms/kg/injection, schedule: Q01DX009 (ip), vehicle: saline + alcohol); 107 % of control (dose: 11.0 micrograms/kg/injection, schedule: Q01DX009 (ip), vehicle: saline with Tween-80); 108 % of control (dose: 13.0 micrograms/kg/injection, schedule: Q01DX009 (ip), vehicle: saline + alcohol); 113 % of control (dose: 19.0 micrograms/kg/injection, schedule: Q01DX009 (ip), vehicle: saline with Tween-80); 110 % of control (dose: 21.0 micrograms/kg/injection, schedule: Q01DX009 (ip), vehicle: saline + alcohol). For the same molecule, the T/C is 113 % of control (dose: 31.0 micrograms/kg/injection, schedule: Q01DX009 (ip), vehicle: saline with Tween-80); 110 % of control (dose: 35.0 micrograms/kg/injection, schedule: Q01DX009 (ip), vehicle: saline + alcohol); 124 % of control (dose: 52.0 micrograms/kg/injection, schedule: Q01DX009 (ip), vehicle: saline with Tween-80); 107 % of control (dose: 59.0 micrograms/kg/injection, schedule: Q01DX009 (ip), vehicle: saline + alcohol); 109 % of control (dose: 86.0 micrograms/kg/injection, schedule: Q01DX009 (ip), vehicle: saline with Tween-80); 100 % of control (dose: 98.0 micrograms/kg/injection, schedule: Q01DX009 (ip), vehicle: saline + alcohol). Further, the T/C (dose: 144.0 micrograms/kg/injection, schedule: Q01DX009 (ip), vehicle: saline with Tween-80) was 113 % of control and the T/C (dose: 240.0 micrograms/kg/injection, schedule: Q01DX009 (ip), vehicle: saline with Tween-80) was 157 % of control.

Turning to `Cc1ncc([N+](=O)[O-])n1CCO`, the T/C is, setting by setting: (dose: 50.0 mg/kg/injection, schedule: Q04DX003 (ip), vehicle: Klucel (hydroxypropylcellulose) (HPC)) 100 % of control; under setting [1], 100 % of control; under setting [2], 95 % of control; under setting [3], 91 % of control.

For the molecule `NC(=S)N/N=C\c1[nH]c(=O)nc2ccccc12`, the T/C runs as follows: under setting [1], 100 % of control; under setting [2], 100 % of control; under setting [3], 95 % of control.

Regarding `CCOC(=O)C1C2OC(=O)C(C(=O)C2CN(CCCl)CCCl)C1C1CC=C(CC2=CCC(C3C4C(=O)OC(C(CN(CCCl)CCCl)C4=O)C3C(=O)OCC)CC2)CC1` (stereo unspecified), the T/C (dose: 6.25 mg/kg/injection, schedule: Q01DX009 (ip), vehicle: Klucel (hydroxypropylcellulose) (HPC)) was 169 % of control; the T/C (dose: 12.5 mg/kg/injection, schedule: Q01DX009 (ip), vehicle: Klucel (hydroxypropylcellulose) (HPC)) is 165 % of control (2×) and 178 % of control; the T/C (dose: 25.0 mg/kg/injection, schedule: Q01DX009 (ip), vehicle: Klucel (hydroxypropylcellulose) (HPC)) is 176 % of control and 184 % of control and 189 % of control; the T/C (dose: 50.0 mg/kg/injection, schedule: Q01DX009 (ip), vehicle: Klucel (hydroxypropylcellulose) (HPC)) was 184 % of control and 208 % of control and 215 % of control; the T/C under setting [4] is 265 % of control and 291 % of control and 109 % of control.

`CC(C)CC(NC(=O)C1CCCN1C(=O)C(CSCc1ccccc1)NC(=O)OCc1ccccc1)C(=O)NCC(N)=O` (stereo unspecified) (Cbz-C(Bn)PLG-NH2; configuration not given here): the T/C runs as follows: under setting [1], 99 % of control; under setting [2], 95 % of control; under setting [3], 87 % of control.

Consider `CC1(C)N=C(N)N=C(N)N1c1cccc(CC(=O)Nc2ccc(S(=O)(=O)F)cc2)c1`, for which the T/C runs as follows: (dose: 25.0 mg/kg/injection, schedule: Q01DX009 (ip), vehicle: saline with Tween-80) 120 % of control; (dose: 50.0 mg/kg/injection, schedule: Q01DX009 (ip), vehicle: saline with Tween-80) 155 % of control; under setting [5], 175 % of control; under setting [6], 170 % of control.

In the case of `FC(F)(F)c1ccc2nc(CI)c(CI)nc2c1`, the T/C (dose: 1.37 mg/kg/injection, schedule: Q01DX009 (ip), vehicle: saline) is 115 % of control; the T/C (dose: 1.5 mg/kg/injection, schedule: Q01DX009 (ip), vehicle: Klucel (hydroxypropylcellulose) (HPC)) was 105 % of control; the T/C (dose: 2.05 mg/kg/injection, schedule: Q01DX009 (ip), vehicle: saline) was 115 % of control; the T/C (dose: 3.0 mg/kg/injection, schedule: Q01DX009 (ip), vehicle: Klucel (hydroxypropylcellulose) (HPC)) is 105 % of control; the T/C (dose: 6.0 mg/kg/injection, schedule: Q01DX009 (ip), vehicle: Klucel (hydroxypropylcellulose) (HPC)) was 111 % of control; the T/C (dose: 12.0 mg/kg/injection, schedule: Q01DX009 (ip), vehicle: Klucel (hydroxypropylcellulose) (HPC)) is 122 % of control. In addition, the T/C is 105 % of control (dose: 12.0 mg/kg/injection, schedule: Q01DX009 (ip), vehicle: saline); 118 % of control (dose: 12.0 mg/kg/injection, schedule: Q04DX003 (ip), vehicle: Klucel (hydroxypropylcellulose) (HPC)); 105 % of control (dose: 12.5 mg/kg/injection, schedule: Q01DX009 (ip), vehicle: saline with Tween-80); 100 % of control (dose: 18.0 mg/kg/injection, schedule: Q01DX009 (ip), vehicle: saline); 122 % of control (dose: 24.0 mg/kg/injection, schedule: Q01DX009 (ip), vehicle: Klucel (hydroxypropylcellulose) (HPC)); 109 % of control (dose: 25.0 mg/kg/injection, schedule: Q04DX003 (ip), vehicle: Klucel (hydroxypropylcellulose) (HPC)). In addition, the T/C by setting is: (dose: 27.0 mg/kg/injection, schedule: Q01DX009 (ip), vehicle: saline) 105 % of control; (dose: 28.0 mg/kg/injection, schedule: Q01DX009 (ip), vehicle: saline) 100 % of control; (dose: 40.0 mg/kg/injection, schedule: Q01DX009 (ip), vehicle: saline) 89 % of control; (dose: 48.0 mg/kg/injection, schedule: Q01DX009 (ip), vehicle: Klucel (hydroxypropylcellulose) (HPC)) 122 % of control.

For the molecule `NC(=S)NN1C2CSC1CS2`, the T/C (dose: 22.5 mg/kg/injection, schedule: Q01DX009 (ip), vehicle: saline with Tween-80) is 100 % of control; the T/C (dose: 45.0 mg/kg/injection, schedule: Q01DX009 (ip), vehicle: saline with Tween-80) is 110 % of control; the T/C (dose: 90.0 mg/kg/injection, schedule: Q01DX009 (ip), vehicle: saline with Tween-80) was 108 % of control.

`C1CCNCC1.O=C([CH-]C(=O)C(F)(F)F)c1ccc2c(c1)C(=O)c1ccccc1-2.O=C([CH-]C(=O)C(F)(F)F)c1ccc2c(c1)C(=O)c1ccccc1-2.O=C([CH-]C(=O)C(F)(F)F)c1ccc2c(c1)C(=O)c1ccccc1-2.O=C([CH-]C(=O)C(F)(F)F)c1ccc2c(c1)C(=O)c1ccccc1-2.[Eu+3]`: the T/C is 102 % of control under setting [4] and 102 % of control (dose: 200.0 mg/kg/injection, schedule: Q01DX009 (ip), vehicle: Klucel (hydroxypropylcellulose) (HPC)).

Regarding `O=S(=O)(c1ccccc1CO)c1ccccc1CO`, the T/C was 98 % of control under setting [7], 95 % of control under setting [8] and 100 % of control under setting [9].

For `CCOC(=O)C(O)c1cccc(OC)c1` (stereo unspecified), the T/C under setting [5] is 100 % of control; the T/C (dose: 100.0 mg/kg/injection, schedule: Q04DX003 (ip), vehicle: saline sonified) was 118 % of control; the T/C under setting [6] was 100 % of control; the T/C (dose: 200.0 mg/kg/injection, schedule: Q04DX003 (ip), vehicle: saline sonified) is 100 % of control; the T/C (dose: 400.0 mg/kg/injection, schedule: Q01DX009 (ip), vehicle: saline with Tween-80) is 104 % of control; the T/C (dose: 400.0 mg/kg/injection, schedule: Q04DX003 (ip), vehicle: saline sonified) was 100 % of control.

For the molecule `CC(=O)Nc1ccc(S(=O)(=O)SC(F)(F)F)cc1`, the T/C is, setting by setting: (dose: 3.13 mg/kg/injection, schedule: Q01DX010 (ip), vehicle: saline) 100 % of control; (dose: 6.25 mg/kg/injection, schedule: Q01DX010 (ip), vehicle: saline) 104 % of control; (dose: 12.5 mg/kg/injection, schedule: Q01DX010 (ip), vehicle: saline) 100 % of control.

For the molecule `CC(=O)CC(=O)C(F)(F)F.CC(=O)CC(=O)C(F)(F)F.[O]=[V]`, the T/C runs as follows: (dose: 3.8 mg/kg/injection, schedule: Q01DX009 (ip), vehicle: Klucel (hydroxypropylcellulose) (HPC)) 106 % of control; (dose: 7.5 mg/kg/injection, schedule: Q01DX009 (ip), vehicle: Klucel (hydroxypropylcellulose) (HPC)) 91 % of control.

Regarding `O=S1(=O)CC(N2CCCCC2)C2=C(CCN(c3ccccc3)C2)O1` (stereo unspecified), the T/C by setting is: under setting [7], 112 % of control; under setting [8], 95 % of control; under setting [9], 98 % of control.
